According to US9855230B2 (ViiV Healthcare UK (No. 5) Limited, priority 2014, dated 2018):
Where a name gives a salt, the structure may show the parent alone. Read-outs that look alike come from different tables or passages of the source.

Key:
[1] = Compound cytotoxicity (CC50), XTT-based colorimetric assay; type: cell-based; conditions: human; uninfected MT2 cells, day 4, XTT assay
Procedure: Compound cytotoxicity and the corresponding CC50 values were determined using the same protocol as described in the antiviral assay except that uninfected cells were used. Cytotoxicity was assessed on day 4 in uninfected MT2 cells by using a XTT (2,3-bis[2-Methoxy-4-nitro-5-sulfophenyl]-2H-tetrazolium-5-carboxyanilide inner salt)-based colorimetric assay (Sigma-Aldrich, St Louis, Mo.).

[2] = test system: recombinant NL4-3 virus (nef section replaced with Renilla luciferase gene) in MT-2 cells; experiment: whole plant or invertebrate; type: cell-based, HIV; conditions: NL43, luciferase activity in MT-2 cells infected 4-5 days with recombinant NL4-3 virus
Description: A recombinant NL4-3 proviral clone, in which a section of the nef gene was replaced with the Renilla luciferase gene, was used to make the reference virus used in these studies.
Supernatent was harvested after 2-3 days and the amount of virus present was titered in MT-2 cells using luciferase enzyme activity as a marker by measuring luciferase enzyme activity. Luciferase was quantitated using the EnduRen Live Cell Substrate from Promega (Madison, Wis.). Antiviral activities of compounds toward the recombinant virus were quantified by measuring luciferase activity in MT-2 cells infected for 4-5 days with the recombinant virus in the presence of serial dilutions of the compound.

| Structure (SMILES) | CC50 at 4 day [1] [µM] | EC50 ([2]; read-out: Activity) [µM] | EC50 ([2]; read-out: EC50) [µM] |
| --- | --- | --- | --- |
| COc1ccc(-n2ccnc2C(Cc2cc(F)cc(F)c2)NC(=O)NS(=O)(=O)c2ccccc2F)cc1 (racemic) [Example 84, (rac)-N-((2-(3,5-difluorophenyl)-1-(1-(4-methoxyphenyl)-1H-imidazol-2-yl)ethyl)carbamoyl)-2-fluorobenzenesulfonamide] | > 100 | 0.1 to 1 | 0.69 |
| COc1ccc(-c2c(C(Cc3ccccc3)NC(=O)NS(=O)(=O)c3ccccc3C)nnn2C)cc1 (racemic) [Example 87, (rac)-N-((1-(5-(4-methoxyphenyl)-1-methyl-1H-1,2,3-triazol-4-yl)-2-phenylethyl)carbamoyl)-2-methylbenzenesulfonamide] | > 100 | 0.1 to 1 | 0.22 |
| O=C(NC(Cc1ccccc1)c1ncccc1-c1ccc2ccncc2c1)NS(=O)(=O)c1ccccc1Cl (stereo in doubt) [Example 108, (S)-2-chloro-N-((1-(3-(isoquinolin-7-yl)pyridin-2-yl)-2-phenylethyl)carbamoyl)benzenesulfonamide, 2 TFA] | > 100 | > 1 | 20 |
| O=C(NC(Cc1cc(F)cc(F)c1)c1ncccc1Br)NS(=O)(=O)c1ccccc1Cl (stereo in doubt) [Example 113, (S)-N-((1-(3-bromopyridin-2-yl)-2-(3,5-difluorophenyl)ethyl)carbamoyl)-2-chlorobenzenesulfonamide, TFA] | > 100 | > 1 |  |
| COc1ccc(-c2cccnc2C(Cc2cc(F)cc(F)c2)NC(=O)NS(=O)(=O)c2ccccc2Cl)cc1 (stereo in doubt) [Example 114, (S)-2-chloro-N-((2-(3,5-difluorophenyl)-1-(3-(4-methoxyphenyl)pyridin-2-yl)ethyl)carbamoyl)benzenesulfonamide, TFA] | > 100 | > 1 | 34.4 |
| COc1ccc(-n2ccnc2[C@H](Cc2ccccc2)NC(=O)NS(=O)(=O)c2ccccc2C)cc1 [Example 1, (S)-N-((1-(1-(4-methoxyphenyl)-1H-imidazol-2-yl)-2-phenylethyl)carbamoyl)-2-methylbenzene-sulfonamide] | > 100 | < 0.1 |  |
| COC(=O)Nc1ccc(-n2ccnc2[C@H](Cc2ccccc2)NC(=O)NS(=O)(=O)c2ccccc2C)cc1 [Example 2, (S)-methyl (4-(2-(2-phenyl-1-(3-(o-tolylsulfonyl)ureido)ethyl)-1H-imidazol-1-yl)phenyl)carbamate] | > 100 | < 0.1 |  |
| COC(=O)Nc1ccc(-n2ccnc2[C@H](Cc2ccccc2)NC(=O)NS(=O)(=O)c2cccc3ccccc23)cc1 [Example 3, (S)-methyl (4-(2-(1-(3-(naphthalen-1-ylsulfonyl)ureido)-2-phenylethyl)-1H-imidazol-1-yl)phenyl)carbamate] | > 100 | 0.1 to 1 | 0.1 |
| Cc1ccccc1S(=O)(=O)NC(=O)N[C@@H](Cc1ccccc1)c1nccn1-c1cccc(-n2cccc2)c1 [Example 4, (S)-N-((1-(1-(3-(1H-pyrrol-1-yl)phenyl)-1H-imidazol-2-yl)-2-phenylethyl)carbamoyl)-2-methyl-benzenesulfonamide] | > 100 | > 1 |  |
| Cc1ccccc1S(=O)(=O)NC(=O)N[C@@H](Cc1ccccc1)c1nccn1-c1ccc(F)cc1 [Example 5, (S)-N-((1-(1-(4-fluorophenyl)-1H-imidazol-2-yl)-2-phenylethyl)carbamoyl)-2-methylbenzenesulfonamide] | > 100 | 0.1 to 1 |  |
| COc1ccc(-n2ccnc2[C@H](Cc2ccccc2)NC(=O)NS(=O)(=O)c2ccccc2Cl)cc1 [Example 6, (S)-2-chloro-N-((1-(1-(4-methoxyphenyl)-1H-imidazol-2-yl)-2-phenylethyl)carbamoyl)benzenesulfonamide] | > 100 | < 0.1 | 0.05 |
| CCOc1ccc(-n2ccnc2[C@H](Cc2ccccc2)NC(=O)NS(=O)(=O)c2ccccc2C)cc1 [Example 7, (S)-N-((1-(1-(4-ethoxyphenyl)-1H-imidazol-2-yl)-2-phenylethyl)carbamoyl)-2-methylbenzenesulfonamide] | > 100 | < 0.1 |  |
| COc1ccc(-n2ccnc2[C@H](Cc2ccccc2)NC(=O)NS(=O)(=O)c2ccccc2C)c(C)c1 [Example 8, (S)-N-((1-(1-(4-methoxy-2-methylphenyl)-1H-imidazol-2-yl)-2-phenylethyl)carbamoyl)-2-methylbenzenesulfonamide] | > 100 | 0.1 to 1 |  |
| COc1cccc(-n2ccnc2[C@H](Cc2ccccc2)NC(=O)NS(=O)(=O)c2ccccc2C)c1 [Example 9, (S)-N-((1-(1-(3-methoxyphenyl)-1H-imidazol-2-yl)-2-phenylethyl)carbamoyl)-2-methylbenzenesulfonamide] | > 100 | < 0.1 | 0.05 |
| COc1ccc(-n2ccnc2[C@H](Cc2ccccc2)NC(=O)NS(=O)(=O)c2ccccc2C)cc1OC [Example 10, (S)-N-((1-(1-(3,4-dimethoxyphenyl)-1H-imidazol-2-yl)-2-phenylethyl)carbamoyl)-2-methylbenzenesulfonamide] | > 100 | < 0.1 |  |
| Cc1ccccc1S(=O)(=O)NC(=O)N[C@@H](Cc1ccccc1)c1nccn1-c1ccc(OC(F)(F)F)cc1 [Example 11, (S)-2-methyl-N-((2-phenyl-1-(1-(4-(trifluoromethoxy)phenyl)-1H-imidazol-2-yl)ethyl)carbamoyl)benzenesulfonamide] | 59 | < 0.1 |  |
| Cc1ccccc1S(=O)(=O)NC(=O)N[C@@H](Cc1ccccc1)c1nccn1-c1cccc(Cl)c1 [Example 12, (S)-N-((1-(1-(3-chlorophenyl)-1H-imidazol-2-yl)-2-phenylethyl)carbamoyl)-2-methylbenzenesulfonamide] | > 100 | < 0.1 | 0.05 |
| Cc1ccc(-n2ccnc2[C@H](Cc2ccccc2)NC(=O)NS(=O)(=O)c2ccccc2C)cc1 [Example 13, (S)-2-methyl-N-((2-phenyl-1-(1-(p-tolyl)-1H-imidazol-2-yl)ethyl)carbamoyl)benzenesulfonamide] | > 100 | < 0.1 |  |
| Cc1ccccc1S(=O)(=O)NC(=O)N[C@@H](Cc1ccccc1)c1nccn1-c1ccc(Cl)cc1 [Example 14, (S)-N-((1-(1-(4-chlorophenyl)-1H-imidazol-2-yl)-2-phenylethyl)carbamoyl)-2-methylbenzenesulfonamide] | > 100 | 0.1 to 1 |  |
| Cc1ccccc1S(=O)(=O)NC(=O)N[C@@H](Cc1ccccc1)c1nccn1-c1ccc(Br)cc1 [Example 15, (S)-N-((1-(1-(4-bromophenyl)-1H-imidazol-2-yl)-2-phenylethyl)carbamoyl)-2-methylbenzenesulfonamide] | > 100 | 0.1 to 1 | 0.19 |
| COc1ccccc1-n1ccnc1[C@H](Cc1ccccc1)NC(=O)NS(=O)(=O)c1ccccc1C [Example 16, (S)-N-((1-(1-(2-methoxyphenyl)-1H-imidazol-2-yl)-2-phenylethyl)carbamoyl)-2-methylbenzenesulfonamide] | > 100 | > 1 |  |
| C=CCOc1cccc(-n2ccnc2[C@H](Cc2ccccc2)NC(=O)NS(=O)(=O)c2ccccc2C)c1 [Example 17, (S)-N-((1-(1-(3-(allyloxy)phenyl)-1H-imidazol-2-yl)-2-phenylethyl)carbamoyl)-2-methylbenzenesulfonamide] | > 33 | 0.1 to 1 |  |
| Cc1ccccc1S(=O)(=O)NC(=O)N[C@@H](Cc1ccccc1)c1nccn1-c1ccc2c(c1)CCO2 [Example 18, (S)-N-((1-(1-(2,3-dihydrobenzofuran-5-yl)-1H-imidazol-2-yl)-2-phenylethyl)carbamoyl)-2-methylbenzenesulfonamide] | > 100 | < 0.1 | 0.01 |
| Cc1ccccc1S(=O)(=O)NC(=O)N[C@@H](Cc1ccccc1)c1nccn1-c1cccc(OC(F)(F)F)c1 [Example 19, (S)-2-methyl-N-((2-phenyl-1-(1-(3-(trifluoromethoxy)phenyl)-1H-imidazol-2-yl)ethyl)carbamoyl)benzenesulfonamide] | > 33 | 0.1 to 1 |  |
| Cc1ccccc1S(=O)(=O)NC(=O)N[C@@H](Cc1ccccc1)c1nccn1-c1cccc(Br)c1 [Example 20, (S)-N-((1-(1-(3-bromophenyl)-1H-imidazol-2-yl)-2-phenylethyl)carbamoyl)-2-methylbenzenesulfonamide] | > 33 | < 0.1 |  |
| Cc1ccccc1S(=O)(=O)NC(=O)N[C@@H](Cc1ccccc1)c1nccn1-c1ccc(OC(C)C)cc1 [Example 21, (S)-N-((1-(1-(4-isopropoxyphenyl)-1H-imidazol-2-yl)-2-phenylethyl)carbamoyl)-2-methylbenzenesulfonamide] | > 100 | < 0.1 | 0.05 |
| Cc1ccccc1S(=O)(=O)NC(=O)N[C@@H](Cc1ccccc1)c1nccn1-c1ccc2c(c1)OCCO2 [Example 22] | > 100 | 0.1 to 1 |  |
| Cc1cccc(-n2ccnc2[C@H](Cc2ccccc2)NC(=O)NS(=O)(=O)c2ccccc2C)c1 [Example 23, (S)-2-methyl-N-((2-phenyl-1-(1-(m-tolyl)-1H-imidazol-2-yl)ethyl)carbamoyl)benzenesulfonamide] | > 100 | < 0.1 |  |
